Structures can show the parent of a compound that is named as a salt. Where two headings read alike, the source gives them in different places. Marks after values point to notes of the source that are not given here.

A word on the EC50: it is the midpoint of the concentration-response curve. For orientation: CC50 means the concentration that lowers cell viability or growth by half. Read a high CC50 as better tolerance by the cells.

In one series the test system is 5-FU catabolism. The series can be described thus: LC-MS/MS analysis of 5-fluorouracil metabolism in mice. The class given is in vivo, BALB/c mice. The note with it: for 5-FU concentration in plasma: 5-FU 30 mg/kg i.v. plus test drug 10 mg/kg p.o.
Series [1] concerns VZV-BAC-Luc. Description: microbe, parasite or virus in culture. Type of series: cell-based, varicella-zoster virus. To be noted: for SI (CC50/EC50): selectivity index in HFFs.
Series [2] has as its system human foreskin fibroblasts (HFFs). Description: Neutral red cytotoxicity assay in HFFs. The class given is cell-based.
The subject of series [3] is VZV-BAC-Luc. The series can be described thus: VZV-BAC-Luc in skin organ culture. Type of series: cell-based, varicella-zoster virus. The note with it: read-out: EC50 in SOC; 6 dpi, bioluminescence imaging, mean ± SD.
Series [4] has as its system VZV-BAC-Luc. Description: VZV yield in HFFs by quantitative real-time PCR. The class given is cell-based, varicella-zoster virus.
Series [5] relates to VZV-BAC-Luc. The series can be described thus: Drug synergy assay. Type of series: cell-based, varicella-zoster virus. To be noted: HFFs, 48 h, VZV yield by bioluminescence.
For series [6], the system named is VZV-BAC-Luc. The class given is in vivo, varicella-zoster virus. To be noted: SCID-Hu mice.
The conditions of series [7]: for Ratio to Plasma: 2 h post final treatment.

As for `O=c1[nH]cc(F)c(=O)[nH]1` [5-FU, 5-fluorouracil], in the series with 5-FU catabolism (30 min, 5-FU alone 30 mg/kg i.v.), the “5-FU in plasma (average AUC)” value stood at 1246 nM. Also, the 5-FU in plasma entry in the series with 5-FU catabolism (60 min, 5-FU alone 30 mg/kg i.v.) was “undetectable”.

`Nc1nc2c(ncn2COCCO)c(=O)[nH]1` [ACV, Acyclovir, reference compound]: the Mortality (120 mg/kg/day) is on record as 0/11.

Take `O=c1[nH]c(=O)n([C@H]2C[C@H](O)[C@@H](CO)O2)cc1/C=C/Br` [BVdU, (E)-5-(2-Bromovinyl)-2′-deoxyuridine]: the entries for the “5-FU concentration in plasma” value with 5-FU catabolism (30 min) and in the series on 5-FU catabolism (60 min) were 945 nM and 685 nM, respectively. Besides, the “effect on 5-FU catabolism” value with 5-FU catabolism (mice, 10 mg/kg p.o. with 5-FU 30 mg/kg i.v.) is reported as “interfered with 5-FU catabolism”.

For `O=c1ccn(C2OC(CO)OC2/C=C/Br)c(=O)[nH]1` [L-BHDU (1), β-L-1-[5-(E-2-Bromovinyl)-2-(hydroxymethyl)-1,3-(dioxolan-4-yl)] uracil], the EC50 in the series on VZV-BAC-Luc [1] (read-out: EC50 in HFFs, 48 hpi, bioluminescence imaging, mean ± SD) is 0.22 ± 0.01 µM; in the series with VZV-BAC-Luc [3], 0.24 ± 0.02 µM; in the series on VZV-BAC-Luc [4] (read-out: EC50 determined by qPCR, VZV genomes), approximately 0.07 µM. Also, the “SI (CC50/EC50)” value in the series with VZV-BAC-Luc [1] and in the series on VZV-BAC-Luc [1] (listed as L-BHDU) was more than 909 in each case. Further, the “cytotoxicity at 200 μM” value in series [2] (200 μM, 3 days) is “noncytotoxic”. This molecule gave a CC50 in series [2] (72 h, neutral red assay) of more than 200 µM. Also, the “VZV genome copy number” value with VZV-BAC-Luc [4] is reported as “reduced VZV genome copy number”. The “interaction with ACV, BVdU and PFA” value in the series with VZV-BAC-Luc [5] is “antagonized the activity of ACV, BVdU and foscarnet”. Besides, the “Ave. VZV Growth Rate (± SD)” value in the series with VZV-BAC-Luc [6] (8 mg/kg/day oral gavage) is reported as 0.33 (0.03) Log10(photons/s/day); in the series with VZV-BAC-Luc [6] (8 mg/kg/day oral gavage, listed as L-BHDU), 0.33 ± 0.03 Log10(photons/s/day); in the series with VZV-BAC-Luc [6] (15 mg/kg/day oral gavage), 0.25 (0.09) ^* Log10(photons/s/day); with VZV-BAC-Luc [6] (15 mg/kg/day oral gavage, listed as L-BHDU) it was 0.25 ± 0.9 Log10(photons/s/day); in the series with VZV-BAC-Luc [6] (150 mg/kg/day oral gavage), 0.22 (0.06) ^* Log10(photons/s/day); in the series with VZV-BAC-Luc [6] (150 mg/kg/day oral gavage, listed as L-BHDU), 0.22 ± 0.6 Log10(photons/s/day). Also, the Mortality is, setting by setting: (8 mg/kg/day) 1/5; (15 mg/kg/day) 0/5; (150 mg/kg/day) 0/5. For the same molecule, the “overt toxicity in vivo” value (mouse, in vivo) is reported as “No overt toxicity”. Besides, the weight loss entry (mouse, in vivo) is recorded as “moderate weight loss”. For the same molecule, the “concentration in human skin implants relative to EC50” value in series [7] (8 mg/kg/day) came to 10 fold. Also, the “Ratio to Plasma” value in [7] (Brain, 8 mg/kg/day) was 0.4 (0.3); in [7] (Brain, 150 mg/kg/day), 0.1 (0.03); in series [7] (Heart, 8 mg/kg/day), 2.9 (2.5); in series [7] (Heart, 150 mg/kg/day), 1.0 (0.2); in series [7] (Kidney, 8 mg/kg/day), 5.1 (3.1); in series [7] (Kidney, 150 mg/kg/day), 2.1 (0.4). The “Ratio to Plasma” value in series [7] (Liver, 8 mg/kg/day) is recorded as 4.5 (1.1); in series [7] (Liver, 150 mg/kg/day) it was 1.5 (0.3); in series [7] (Lung, 8 mg/kg/day) it was 11.2 (5.7); in [7] (Lung, 150 mg/kg/day) it was 2.3 (0.5); in [7] (Plasma, 8 mg/kg/day) it was 1; in series [7] (Plasma, 150 mg/kg/day), 1. The “Ratio to Plasma” value is on record as 3.1 (2.6) in [7] (Skin (Human) xenograft, 8 mg/kg/day); 3.0 (2.5) in series [7] (Skin (Mouse), 8 mg/kg/day); 0.9 (0.2) in series [7] (Skin (Mouse), 150 mg/kg/day); 2.1 (1.3) in series [7] (Spleen, 8 mg/kg/day); 1.4 (0.2) in [7] (Spleen, 150 mg/kg/day).

As for `O=C(O)P(=O)(O)O` [PFA, sodium phosphonoformate tribasic hexahydrate, reference compound], the 50% effective concentration (EC50) with VZV-BAC-Luc [1] (Human alphaherpesvirus 3, read-out: EC50 in HFFs) amounted to 40 µM.

As to `CC(C)[C@H](N)C(=O)OCCOCn1cnc2c(=O)[nH]c(N)nc21` [VACV, Valacyclovir HCl, reference compound], the “Ave. VZV Growth Rate (± SD)” value is listed as 0.40 (0.09) Log10(photons/s/day) with VZV-BAC-Luc [6] (120 mg/kg/day oral gavage); 0.27 (0.07) ^* Log10(photons/s/day) with VZV-BAC-Luc [6] (200 mg/kg/day oral gavage); 0.27 ± 0.07 Log10(photons/s/day) with VZV-BAC-Luc [6] (200 mg/kg/day oral gavage, listed as Valacyclovir). In addition, the “effect on VZV replication” value with VZV-BAC-Luc [6] (120 mg/kg/day) is given as “had no effect on VZV replication”. In addition, the “ABWD (±SD), Average Body Weight Difference from Days 0–7” value was −2.9 (1.2) ^* grams (120 mg/kg/day) and −3.6 (1.5) ^* grams (200 mg/kg/day). The Mortality is 0/11 (120 mg/kg/day) and 0/10 (200 mg/kg/day).
